# Experimental data published in patent publication US11976083B2, “Inhibitors of peptidylarginine deiminases” (Gilead Sciences, Inc., priority 2020, dated 2024).
# Target: T1, human PAD4 (Homo sapiens, UniProt Q9UM07)
# T1 construct: human PAD4 (NM_012387), A2-P663, was PCR amplified; His-SUMO (N, cleaved yes); made in house; host or cells: E. coli BL21(DE3)
# Assay: In vitro PAD4 BAEE biochemical assay
# Details: BAEE substrate 3 mM, 5 nM PAD4, 2 mM calcium chloride; geometric mean of multiple experiments
# Summary of the method: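 Recombinant PAD4 (5 nM final) with 2 mM CaCl2 was preincubated with compound for 30 min at 25 °C in MOPS pH 7.6 buffer with DTT, then reacted with 3 mM BAEE for 2 h at 25 °C. Released ammonia was detected fluorimetrically with o-phthalaldehyde/DTT; IC50 from four-parameter fit, geometric mean of experiments.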
# T1 sequence (Q9UM07 2-663): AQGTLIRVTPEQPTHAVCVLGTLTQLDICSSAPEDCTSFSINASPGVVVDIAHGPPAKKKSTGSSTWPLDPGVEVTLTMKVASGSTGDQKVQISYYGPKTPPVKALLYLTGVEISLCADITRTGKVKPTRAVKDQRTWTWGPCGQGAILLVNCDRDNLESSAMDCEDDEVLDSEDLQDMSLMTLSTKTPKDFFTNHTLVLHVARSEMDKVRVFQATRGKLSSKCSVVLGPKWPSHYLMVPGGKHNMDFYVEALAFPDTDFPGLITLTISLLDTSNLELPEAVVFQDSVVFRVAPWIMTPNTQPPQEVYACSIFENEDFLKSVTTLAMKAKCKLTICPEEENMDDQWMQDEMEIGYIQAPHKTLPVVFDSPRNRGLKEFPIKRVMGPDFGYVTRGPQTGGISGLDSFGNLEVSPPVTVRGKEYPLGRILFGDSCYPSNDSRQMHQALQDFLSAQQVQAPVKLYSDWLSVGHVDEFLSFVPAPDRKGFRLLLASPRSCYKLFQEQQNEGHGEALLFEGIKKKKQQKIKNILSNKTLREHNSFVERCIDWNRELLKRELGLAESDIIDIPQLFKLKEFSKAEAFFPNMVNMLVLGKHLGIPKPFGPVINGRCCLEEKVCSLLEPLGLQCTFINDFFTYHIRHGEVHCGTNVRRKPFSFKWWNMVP
row,SMILES,IC50
1,"COc1cc(C(=O)N2CC[C@@H](OC)[C@@H](N)C2)cc2nc(-c3cc4ccc5nc4n3Cc3ccccc3C/C=C/CC(=O)N[C@@H]5C)n(C)c12 [Example 239, (10~{E},15~{R})-21-[5-[(3~{S},4~{R})-3-amino-4-methoxy-piperidine-1-carbonyl]-7-methoxy-1-methyl-benzimidazol-2-yl]-15-methyl-1,14,23-triazatetracyclo[14.5.2.0^{3,8}.0^{19,22}] tricosa-3(8),4,6,10,16,18,20,22-octaen-13-one]",583 nM
2,"C[C@H]1NC(=O)c2c(F)cncc2CCCCCn2c(-c3nc4cc(C(=O)N5C[C@H](N)[C@@H]6CC[C@H]5C6)cc(F)c4n3C3CC3)cc3ccc1nc32 [Example 440, (2~{R})-17-[5-[(1~{S},4~{R},5~{R})-4-amino-2-azabicyclo[3.2.1]octane-2-carbonyl]-1-cyclopropyl-7-fluoro-benzimidazol-2-yl]-6-fluoro-2-methyl-3,8,16,22-tetrazatetracyclo[14.5.2.0^{5,10}.0^{19,23}] tricosa-1(22),5(10),6,8,17,19(23),20-heptaen-4-one]",27 nM
3,"C[C@H]1NC(=O)[C@@H]2C[C@H]2CCCCCn2c(-c3nc4cc(C(=O)N[C@H]5CNC[C@H]6C[C@H]65)c(F)cc4n3C3CC3)cc3ccc1nc32 [Example 575, ~{N}-[(1~{S),5~{R},6~{R})-3-azabicyclo[4.1.0]heptan-5-yl]-1-cyclopropyl-6-fluoro-2-[(2~{R},5~{R},7~{R})-2-methyl-4-oxo-3,13,19-triazatetracyclo[11.5.2.0^ {5,7}.0^{16,20}]icosa-1(19),14,16(20),17-tetraen-14-yl]benzimidazole-5-carboxamide]",26 nM
4,"CCCO[C@@H]1CCN(C(=O)c2cc(OC)c3c(c2)nc(-c2cc4ccc5nc4n2CCCCCCC(C)(C)C(=O)N[C@@H]5C)n3C)C[C@@H]1N [Example 103, (11~{R})-17-[5-[(3~{S},4~{R})-3-amino-4-propoxy-piperidine-1-carbonyl]-7-methoxy-1-methyl-benzimidazol-2-yl]-8,8,11-trimethyl-1,10,19-triazatricyclo[10.5.2.0^{15,18}]nonadeca-12(19),13,15(18),16-tetraen-9-one]",166 nM
5,"C[C@H]1NC(=O)C(C)(C)CCCCCCn2c(-c3nc4cc(C(=O)N[C@H]5CNCC[C@@H]5F)c(F)cc4n3C(F)F)cc3ccc1nc32 [Example 626, 1-(difluoromethyl)-6-fluoro-˜{N}-[(3˜{S},4˜{S})-4-fluoro-3-piperidyl]-2-[(11˜{R})-8,8,11-trimethyl-9-oxo-1,10,19-triazatricyclo[10.5.2.0^{15,18}]nonadeca-12(19),13,15(18),16-tetraen-17-yl]benzimidazole-5-carboxamide]",48 nM
6,"COc1cc(C(=O)N[C@H]2CNCC[C@@H]2F)cc2nc(-c3cc4ccc5nc4n3CCCCCc3ccccc3C(=O)N[C@@H]5C)n(C)c12 [Example 31, ~{N}-[(3~{S},4~{S})-4-fluoro-3-piperidyl]-7-methoxy-1-methyl-2-[(2~{R})-2-methyl-4-oxo-3,16,22-triazatetracyclo[14.5.2.0^{5,10}.0^{19,23}]tricosa-1(22),5,7,9,17,19(23),20-heptaen-17-yl]benzimidazole-5-carboxamide]",81 nM
7,"C[C@@H]1c2ccc3cc(-c4nc5cc(C(=O)N[C@H]6CNCC[C@@H]6F)c(F)cc5n4C4CC4)n(c3n2)CCCCCc2nc(Cl)ccc2C(=O)N1C [Example 750, 2-[(2~{R})-8-chloro-2,3-dimethyl-4-oxo-3,9,16,22-tetrazatetracyclo[14.5.2.0^ {5,10}.0^{19,23}]tricosa-1(22),5(10),6,8,17,19(23),20-heptaen-17-yl]-1-cyclopropyl-6-fluoro-~{N}-[(3~{S},4~ {S})-4-fluoro-3-piperidyl] benzimidazole-5-carboxamide]",28 nM
8,"COc1cc(C(=O)N2C[C@H](N)[C@@H]3CC[C@H]2C3)cc2nc(-c3cc4ccc5nc4n3CC(F)(F)CCC[C@@H]3C[C@H]3C(=O)N[C@@H]5C)n(C3CC3)c12 [Example 766, (2~{R},5~{R},7~{R})-14-[5-[(1~{S},4~{R},5~{R})-4-amino-2-azabicyclo[3.2.1]octane-2-carbonyl]-1-cyclopropyl-7-methoxy-benzimidazol-2-yl]-11,11-difluoro-2-methyl-3,13,19-triazatetracyclo [11.5.2.0^{5,7}.0^{16,20}] icosa-1(19),14,16(20),17-tetraen-4-one]",28 nM
9,"COc1cc(C(=O)N2[C@H]3CC[C@@H]2[C@H](N)C3)cc2nc(-c3cc4ccc5nc4n3C[C@@H]3C[C@@H]3COCCC(=O)N[C@@H]5C)n(C)c12 [Example 337, (3~{R},5~{S},12~{R})-18-[5-[(1~{R},2~{R},4~{S})-2-amino-7-azabicyclo[2.2.1]heptane-7-carbonyl]-7-methoxy-1-methyl-benzimidazol-2-yl]-12-methyl-7-oxa-1,11,20-triazatetracyclo[11.5.2.0^{3,5}.0^{16,19}] icosa-13(20),14,16(19),17-tetraen-10-one]",32 nM
10,"C[C@H]1NC(=O)[C@H]2C[C@@H]2CC(F)(F)CCCn2c(-c3nc4cc(C(=O)N[C@H]5CNCC[C@@H]5F)c(F)cc4n3C)cc3ccc1nc32 [Example 624, 2-[(2~{R},5~{S},7~{R})-9,9-difluoro-2-methyl-4-oxo-3,13,19-triazatetracyclo[11.5.2.0^ {5,7).0^{16,20}]icosa-1(19),14,16(20), 17-tetraen-14-yl]-6-fluoro-~{N}-[(3~{S},4~ {S})-4-fluoro-3-piperidyl]-1-methyl-benzimidazole-5-carboxamide]",70 nM

# More lines, in order of falling IC50, values ahead:
row,IC50,SMILES
1,1380 nM,"COc1cc(C(=O)N2CCC[C@@H](N)C2)cc2nc(-c3cc4ccc5nc4n3CCCOC[C@@H]3C[C@@H]3C(=O)N[C@@H]5C)n(C)c12 [Example 309, (2~{R},5~{S},7~{R})-14-[5-[(3~{R})-3-aminopiperidine-1-carbonyl]-7-methoxy-1-methyl-benzimidazol-2-yl]-2-methyl-9-oxa-3,13,19-triazatetracyclo[11.5.2.0^{5,7}.0^{16,20}] icosa-1(19),14,16(20),17-tetraen-4-one]"
2,255 nM,"COc1cc(C(=O)N2CCC[C@@H](N)C2)cc2nc(-c3cc4ccc5nc4n3C[C@H]3C[C@H]3CC[C@H]3C[C@@H]3C(=O)N[C@@H]5C)n(C)c12 (single isomer, unassigned) [Example 116, (3˜{S},5˜{R},8˜{S},10˜{S},13˜{R})-19-[5-[(3˜{R})-3-aminopiperidine-1-carbonyl]-7-methoxy-1-methyl-benzimidazol-2-yl]-13-methyl-1,12,21-triazapentacyclo[12.5.2.0^{3,5}.0^{8,10}.0^{17,20}]henicosa-14(21),15,17(20),18-tetraen-11-one]"
3,114 nM,"COc1cc(C(=O)N[C@H]2CNC[C@H]3C[C@H]32)cc2nc(-c3cc4ccc5nc4n3CCCCCCC(C)(C)C(=O)N[C@@H]5C)n(C)c12 [Example 203, ~{N}-[(1~{S},5~{R},6~{R})-3-azabicyclo[4.1.0]heptan-5-yl]-7-methoxy-1-methyl-2-[(11~{R})-8,8,11-trimethyl-9-oxo-1,10,19-triazatricyclo[10.5.2.0^{15,18}]nonadeca-12(19),13,15(18),16-tetraen-17-yl]benzimidazole-5-carboxamide]"
4,87 nM,"COc1cc(C(=O)N2CCC[C@@H](N)C2)cc2nc(-c3cc4ccc5nc4n3CCCCCCCC(=O)NC5C(F)F)n(C)c12 (stereo partly drawn) [Example 238, 17-[5-[(3~{R})-3-aminopiperidine-1-carbonyl]-7-methoxy-1-methyl-benzimidazol-2-yl]-11-(difluoromethyl)-1,10,19-triazatricyclo[10.5.2.0^{15,18}]nonadeca-12(19),13,15(18),16-tetraen-9-one]"
5,47 nM,"C[C@H]1NC(=O)[C@]2(C)C[C@H]2CCCC(F)(F)Cn2c(-c3nc4cc(C(=O)N[C@H]5CNCC[C@@H]5F)c(F)cc4n3C)cc3ccc1nc32 [Example 553, 2-[(2~{R},5~{R},7~ {R})-11,11-difluoro-2,5-dimethyl-4-oxo-3,13,19-triazatetracyclo [11.5.2.0^{5,7}.0^ {16,20}]icosa-1(19),14, 16(20),17-tetraen-14-yl]-6-fluoro-~{N}-[(3~{S}, 4~{S})-4-fluoro-3-piperidyl]-1-methyl-benzimidazole-5-carboxamide]"
6,42 nM,"C[C@H]1NC(=O)[C@@H]2C[C@H]2CCCCCn2c(-c3nc4cc(C(=O)N[C@H]5CNCC[C@@H]5F)c(F)cc4n3[C@H]3C[C@H]3C(F)F)cc3ccc1nc32 (single isomer, unassigned) [Example 412, 1-[(1~{S},2~{R})-2-(difluoromethyl)cyclopropyl]-6-fluoro-~ {N}-[(3~{S),4~{S})-4-fluoro-3-piperidyl]-2-[(2~{R},5~{R},7~{R})-2-methyl-4-oxo-3,13,19-triazatetracyclo[11.5.2.0^{5,7}.0^{16,20}]icosa-1(19),14,16(20),17-tetraen-14-yl]benzimidazole-5-carboxamide]"
7,31 nM,"C[C@H]1NC(=O)c2ccc(Cl)nc2CCCCCn2c(-c3nc4cc(C(=O)N5C[C@H](N)CC[C@@H]5C)cc(F)c4n3C3CC3)cc3ccc1nc32 [Example 807, (2~{R})-17-[5-[(2~{S},5~{R})-5-amino-2-methyl-piperidine-1-carbonyl]-1-cyclopropyl-7-fluoro-benzimidazol-2-yl]-8-chloro-2-methyl-3,9,16,22-tetrazatetracyclo[14.5.2.0^ {5,10}.0^{19,23}]tricosa-1(21),5(10),6,8,17,19,22-heptaen-4-one]"
8,19 nM,"COc1cc(C(=O)N2C[C@H](N)[C@@H]3CC[C@H]2C3)cc2nc(-c3cc4ccc5nc4n3CCCCC[C@]3(F)C[C@H]3C(=O)N[C@@H]5C)n(C)c12 [Example 451, (2~{R},5~{S},7~{S})-14-[5-[(1~{S},4~{R},5~{R})-4-amino-2-azabicyclo[3.2.1]octane-2-carbonyl]-7-methoxy-1-methyl-benzimidazol-2-yl]-7-fluoro-2-methyl-3,13,19-triazatetracyclo[11.5.2.0^{5,7}.0^{16,20}] icosa-1(19),14,16(20),17-tetraen-4-one]"
